Experiments:
Assay type in all cases: functional
OVCAR-3 = assay: Growth inhibition of human OVCAR3 cells assessed as cell growth at 0.3 uM incubated for 48 hrs by sulforhodamine B assay relative to control; conditions: OVCAR-3, 48 h, read-out: Activity
HCT-116 [1] = assay: Growth inhibition of human HCT116 cells assessed as cell growth at 30 uM incubated for 48 hrs by sulforhodamine B assay relative to control; conditions: HCT-116, 48 h, read-out: Activity
NCI/ADR-RES = assay: Growth inhibition of human NCI/ADR-RES cells assessed as cell growth at 0.3 uM incubated for 48 hrs by sulforhodamine B assay relative to control; conditions: read-out: Activity
786-0 = assay: Growth inhibition of human 786-0 cells assessed as cell growth at 3 uM incubated for 48 hrs by sulforhodamine B assay relative to control; conditions: 786-0, 48 h, read-out: Activity
A549 [2] = assay: Growth inhibition of human A549/ATCC cells assessed as cell growth at 3 uM incubated for 48 hrs by sulforhodamine B assay relative to control; conditions: A549, 48 h, read-out: Activity
SN12C [3] = assay: Growth inhibition of human SN12C cells assessed as cell growth at 0.03 uM incubated for 48 hrs by sulforhodamine B assay relative to control; conditions: read-out: Activity
A498 [4] = assay: Growth inhibition of human A498 cells assessed as cell growth at 0.3 uM incubated for 48 hrs by sulforhodamine B assay relative to control; conditions: A498, 48 h, read-out: Activity
SNB-75 = assay: Growth inhibition of human SNB75 cells assessed as cell growth at 0.3 uM incubated for 48 hrs by sulforhodamine B assay relative to control; conditions: SNB-75, 48 h, read-out: Activity
SN12C [5] = assay: Growth inhibition of human SN12C cells assessed as cell growth at 0.3 uM incubated for 48 hrs by sulforhodamine B assay relative to control; conditions: read-out: Activity
UO-31 = assay: Growth inhibition of human UO31 cells assessed as cell growth at 0.3 uM incubated for 48 hrs by sulforhodamine B assay relative to control; conditions: UO-31, 48 h, read-out: Activity
SNB-19 = assay: Growth inhibition of human SNB19 cells assessed as cell growth at 3 uM incubated for 48 hrs by sulforhodamine B assay relative to control; conditions: SNB-19, 48 h, read-out: Activity
SW-620 [6] = assay: Growth inhibition of human SW620 cells assessed as cell growth at 0.3 uM incubated for 48 hrs by sulforhodamine B assay relative to control; conditions: SW-620, 48 h, read-out: Activity
SN12C [7] = assay: Growth inhibition of human SN12C cells assessed as cell growth at 3 uM incubated for 48 hrs by sulforhodamine B assay relative to control; conditions: read-out: Activity
OVCAR-5 = assay: Growth inhibition of human OVCAR5 cells assessed as cell growth at 3 uM incubated for 48 hrs by sulforhodamine B assay relative to control; conditions: OVCAR-5, 48 h, read-out: Activity
HCT-116 [8] = assay: Growth inhibition of human HCT116 cells assessed as cell growth at 3 uM incubated for 48 hrs by sulforhodamine B assay relative to control; conditions: HCT-116, 48 h, read-out: Activity
A498 [9] = assay: Growth inhibition of human A498 cells assessed as cell growth at 3 uM incubated for 48 hrs by sulforhodamine B assay relative to control; conditions: A498, 48 h, read-out: Activity
A549 [10] = assay: Growth inhibition of human A549/ATCC cells assessed as cell growth at 0.3 uM incubated for 48 hrs by sulforhodamine B assay relative to control; conditions: A549, 48 h, read-out: Activity
MCF7 [11] = assay: Growth inhibition of human MCF7 cells assessed as cell growth at 3 uM incubated for 48 hrs by sulforhodamine B assay relative to control; conditions: MCF7, 48 h, read-out: Activity
UACC-257 = assay: Growth inhibition of human UACC257 cells assessed as cell growth at 0.003 uM incubated for 48 hrs by sulforhodamine B assay relative to control; conditions: UACC-257, 48 h, read-out: Activity
OVCAR-4 = assay: Growth inhibition of human OVCAR4 cells assessed as cell growth at 30 uM incubated for 48 hrs by sulforhodamine B assay relative to control; conditions: OVCAR-4, 48 h, read-out: Activity
CCRF-CEM = assay: Growth inhibition of human CCRF-CEM cells assessed as cell growth at 0.03 uM incubated for 48 hrs by sulforhodamine B assay relative to control; conditions: read-out: Activity
HCT-116 [12] = assay: Growth inhibition of human HCT116 cells assessed as cell growth at 0.3 uM incubated for 48 hrs by sulforhodamine B assay relative to control; conditions: HCT-116, 48 h, read-out: Activity
RXF 393 = assay: Growth inhibition of human RXF393 cells assessed as cell growth at 0.01 uM incubated for 48 hrs by sulforhodamine B assay relative to control; conditions: RXF 393, 48 h, read-out: Activity
SW-620 [13] = assay: Growth inhibition of human SW620 cells assessed as cell growth at 10 uM incubated for 48 hrs by sulforhodamine B assay relative to control; conditions: SW-620, 48 h, read-out: Activity
TK-10 = assay: Growth inhibition of human TK10 cells assessed as cell growth at 10 uM incubated for 48 hrs by sulforhodamine B assay relative to control; conditions: TK-10, 48 h, read-out: Activity
U-251 [14] = assay: Growth inhibition of human U251 cells assessed as cell growth at 1 uM incubated for 48 hrs by sulforhodamine B assay relative to control; conditions: U-251, 48 h, read-out: Activity
HCC 2998 = assay: Growth inhibition of human HCC2998 cells assessed as cell growth at 0.01 uM incubated for 48 hrs by sulforhodamine B assay relative to control; conditions: HCC 2998, 48 h, read-out: Activity
SK-OV-3 = assay: Growth inhibition of human SKOV3 cells assessed as cell growth at 0.1 uM incubated for 48 hrs by sulforhodamine B assay relative to control; conditions: SK-OV-3, 48 h, read-out: Activity
OVCAR-8 = assay: Growth inhibition of human OVCAR8 cells assessed as cell growth at 1 uM incubated for 48 hrs by sulforhodamine B assay relative to control; conditions: OVCAR-8, 48 h, read-out: Activity
MCF7 [15] = assay: Growth inhibition of human MCF7 cells assessed as cell growth at 1 uM incubated for 48 hrs by sulforhodamine B assay relative to control; conditions: MCF7, 48 h, read-out: Activity
SK-MEL-5 = assay: Growth inhibition of human SK-MEL-5 cells assessed as cell growth at 100 uM incubated for 48 hrs by sulforhodamine B assay relative to control; conditions: SK-MEL-5, 48 h, read-out: Activity
DU-145 = assay: Growth inhibition of human DU145 cells assessed as cell growth at 100 uM incubated for 48 hrs by sulforhodamine B assay relative to control; conditions: DU-145, 48 h, read-out: Activity
U-251 [16] = assay: Growth inhibition of human U251 cells assessed as cell growth at 0.1 uM incubated for 48 hrs by sulforhodamine B assay relative to control; conditions: U-251, 48 h, read-out: Activity
A549 [17] = assay: Growth inhibition of human A549/ATCC cells assessed as cell growth at 100 uM incubated for 48 hrs by sulforhodamine B assay relative to control; conditions: A549, 48 h, read-out: Activity
U-251 [18] = assay: Growth inhibition of human U251 cells assessed as cell growth at 10 uM incubated for 48 hrs by sulforhodamine B assay relative to control; conditions: U-251, 48 h, read-out: Activity
A549 [19] = assay: Growth inhibition of human A549/ATCC cells assessed as cell growth at 0.01 uM incubated for 48 hrs by sulforhodamine B assay relative to control; conditions: A549, 48 h, read-out: Activity

SMILES | growth at 0.3 µM (OVCAR-3) [%] | growth at 30 µM (HCT-116 [1]) [%] | growth at 0.3 µM (NCI/ADR-RES) [%] | growth at 3 µM (786-0) [%] | growth at 3 µM (A549 [2]) [%] | growth at 0.03 µM (SN12C [3]) [%] | growth at 0.3 µM (A498 [4]) [%] | growth at 0.3 µM (SNB-75) [%] | growth at 0.3 µM (SN12C [5]) [%] | growth at 0.3 µM (UO-31) [%] | growth at 3 µM (SNB-19) [%] | growth at 0.3 µM (SW-620 [6]) [%] | growth at 3 µM (SN12C [7]) [%] | growth at 3 µM (OVCAR-5) [%] | growth at 3 µM (HCT-116 [8]) [%] | growth at 3 µM (A498 [9]) [%] | growth at 0.3 µM (A549 [10]) [%] | growth at 3 µM (MCF7 [11]) [%] | growth at 0.003 µM (UACC-257) [%] | growth at 30 µM (OVCAR-4) [%] | also measured
COc1cc2cc(Oc3ccc(NC(=O)Nc4ccc(Cl)c(C(F)(F)F)c4)cc3)c(C)nc2cc1OC | 95 | -83 | 94 | 16 | 10 | 95 | 78 | 90 | 94 | 105 | 24 | 99 | 21 | 32 | 7 | 1 | 89 | 7 | 94 | -62 | growth at 0.03 µM (CCRF-CEM): 103%; growth at 0.3 µM (HCT-116 [12]): 91%
COc1cc2cc(Oc3ccc(NC(=O)Nc4ccc(Cl)c(Cl)c4)cc3)c(C)nc2cc1OC | – | – | – | – | – | – | – | – | – | – | – | – | – | – | – | – | – | – | – | – | growth at 0.01 µM (RXF 393): 106%; growth at 10 µM (SW-620 [13]): 16%; growth at 10 µM (TK-10): -4%; growth at 1 µM (U-251 [14]): 83%; growth at 0.01 µM (HCC 2998): 101%; growth at 0.1 µM (SK-OV-3): 107%; growth at 1 µM (OVCAR-8): 96%; growth at 1 µM (MCF7 [15]): 86%; growth at 100 µM (SK-MEL-5): -93%; growth at 100 µM (DU-145): -64%; growth at 0.1 µM (U-251 [16]): 93%; growth at 100 µM (A549 [17]): -100%; growth at 10 µM (U-251 [18]): -13%; growth at 0.01 µM (A549 [19]): 96%
Cc1nc2cc(O)c(O)cc2cc1Oc1ccc(NC(=O)Nc2ccc(Cl)c(Cl)c2)cc1 | 109 | -26 | 97 | 98 | 98 | 102 | 80 | 75 | 105 | 102 | 96 | 100 | 92 | 119 | 42 | 79 | 96 | 87 | 85 | 9 | growth at 0.03 µM (CCRF-CEM): 95%; growth at 0.3 µM (HCT-116 [12]): 90%
COc1cc2cc(Oc3ccc(NC(=O)Nc4cc(C(F)(F)F)cc(C(F)(F)F)c4)cc3)c(C)nc2cc1OC | – | – | – | – | – | – | – | – | – | – | – | – | – | – | – | – | – | – | – | – | growth at 0.01 µM (RXF 393): 100%; growth at 10 µM (SW-620 [13]): -26%; growth at 10 µM (TK-10): -3%; growth at 1 µM (U-251 [14]): 55%; growth at 0.01 µM (HCC 2998): 99%; growth at 0.1 µM (SK-OV-3): 104%; growth at 1 µM (OVCAR-8): 76%; growth at 1 µM (MCF7 [15]): 35%; growth at 100 µM (SK-MEL-5): -93%; growth at 100 µM (DU-145): -96%; growth at 0.1 µM (U-251 [16]): 100%; growth at 100 µM (A549 [17]): -85%; growth at 10 µM (U-251 [18]): -85%; growth at 0.01 µM (A549 [19]): 101%
